These results are taken from patent US20250057832A1, “USE OF A CLASS OF 1,4-DIHYDRO-NAPHTHYRIDINE DERIVATIVES IN TREATMENT OF TUMORS” (NEURODAWN PHARMACEUTICAL CO., LTD., priority 2021, published 2025).

Structures are written as SMILES.

The test system of one test is T98G cells. Briefly: Vacuolation induction in T98G cells (Example 1). Format: cell-based, human. As to the method:
T98G cells were stably passaged twice. When the cell density reached more than 85%, the cells were digested with 0.05% trypsin-EDTA for 3 minutes, resuspended with the culture medium, and plated in a 12-well plate at a certain density, with each well system being 1 mL. The cells were cultured for 24 hours, and added with the compound solution prepared above to each well according to the grouping, so that the concentrations of the compounds in the culture system were respectively 5 μM, 10 μM, 20 μM, 40 μM, and 60 μM. An equal volume of DMSO was added as a control well.
After 6 hours of drug treatment, the plates were observed under a microscope with a 20× objective lens, and five fields of view were randomly selected for each well to take photos and record. If in the observed field of view, bright vacuoles with clear border appeared in the cell, and at least one of the following conditions was met: 1) a cell contained at least 1 vacuole with a diameter greater than 3 μm; 2) a cell contained 3 or more vacuoles with a diameter within the range of 0.5-3 μm, the cell was considered to be methuosis-positive cells.
Among them, CELL positive: the number of methuosis-positive cells; CELL normal: the number of cells with normal morphology

Test [1] deals with A172. Nature of the test: Vacuolation phenotype by S2 (Example 2). Format: cell-based, human. The note with it: A172, 30 μM, 6 hours. As to the method: (§1) U87MG, T98G, U251, SK-N-SH, A-172 and HepG2 cells were adherently cultured in MEM+10% FBS+1% P/S medium and passaged at 1:3; CT26.WT cells were adherently cultured in RPMI-1640+10% FBS+1% P/S medium and passaged at 1:3; CHO-K1 was cultured adherently in Ham's F-12K+10% FBS+[…] medium and passaged at 1:3.
(§2) The cells used above were resuscitated and passaged twice stably. When the cell density reached above 85%, the cells were digested with 0.05% trypsin-EDTA for 3 minutes, resuspended with the culture medium, and plated into a 6-well plate at a certain density, with each well system being 2 mL. The cells were cultured for 24 hours, added with 2 μL of the above-prepared S2 solution (final DMSO concentration 0.1%) to each well according to the grouping, such that the S2 concentration in the cell culture system reached 30 μM.
(§3) After 6 hours of drug treatment, the plate was observed under a microscope with a 20× objective lens, and five fields of view were randomly selected for each well to take photos and record. If bright vacuoles with clear border appeared in the cell in the observed field of view, and at least one of the following conditions was met: 1) a cell contained at least one vacuole with a diameter greater than […]; 2) a cell contained 3 or more vacuoles with a diameter within the range of […], the cell was considered as a methuosis-positive cell (Journal of Medicinal Chemistry 2018 61 (12), 5424-5434).
(§4) CELLpositive: the number of methuosis-positive cells; CELLnormal: the number of cells with normal morphology

The subject of test [2] is HepG2. Briefly: Vacuolation phenotype by S2 (Example 2). Particulars: HepG2, 30 μM, 6 hours. Format: cell-based, human. As to the method:
as §1, §2, §3, §4

Test [3] relates to SK-N-SH. Briefly: Vacuolation phenotype by S2 (Example 2). The note with it: 30 μM, 6 hours. Format: cell-based, human. As to the method:
as §1, §2, §3, §4

The test system of test [4] is T98G. Briefly: Vacuolation phenotype by S2 (Example 2). Format: cell-based, human. The note with it: 30 μM, 6 hours. On the procedure:
as §1, §2, §3, §4

In test [5] the test system is U251. Briefly: Vacuolation phenotype by S2 (Example 2). The note with it: U251, 30 μM, 6 hours. Format: cell-based, human. On the procedure:
as §1, §2, §3, §4

In test [6] the test system is U87MG. Briefly: Vacuolation phenotype by S2 (Example 2). Format: cell-based, human. The note with it: 30 μM, 6 hours. As to the method:
as §1, §2, §3, §4

Test [7] relates to CT26.WT. Nature of the test: Vacuolation phenotype by S2 (Example 2). Format: cell-based, mouse. Particulars: 30 μM, 6 hours. On the procedure: as §1, §2
(§5) After 6 hours of drug treatment, the plate was observed under a microscope with a 20× objective lens, and five fields of view were randomly selected for each well to take photos and record. […]

Test [8] deals with CHO-K1. Briefly: Vacuolation phenotype by S2 (Example 2). Format: cell-based, hamster. The note with it: non-tumor cell line CHO-K1, 30 μM, 6 hours. As to the method: as §1, §2, §5
Test [9] has as its system A172. Briefly: Cell viability assay (Example 2). Format: cell-based. Particulars: Homo sapiens, A 172; A172, 48 hours. On the procedure:
as §1
(§6) The above various cells were resuscitated and stably passaged twice. When the cell density reached above 85%, the cells were digested with 0.05% trypsin-EDTA for three minutes, resuspended, plated in a 96-well plate at the corresponding density, and cultured for 24 hours. The cells were treated with drugs at final concentrations of the culture system of 0.41 μM, 1.23 μM, 3.7 μM, 11.1 μM, 33.3 μM, and 100 μM. After 48 hours of drug treatment, cell viability was determined using CellCounting-Lite™ 2.0 kit. The plate was added with reagents at 100 µL/well according to the CellCounting-Lite™ 2.0 kit instructions, and shaken for 10 minutes. The luminescence value (LUM) was read on a multi-function plate reader, and the relative viability of the cells was calculated.
(§7) Relative viability of tumor cells V (%)=(LUM-LUMbackground)/(LUMnormal control−LUMbackground)×100%. LUMbackground was the background reading of the complete culture medium well added with the detection reagent. The half inhibitory concentration (IC50) was calculated using GraphPad Prism 8.0.1 statistical software.

The subject of test [10] is CT26.WT. Nature of the test: Cell viability assay (Example 2). The note with it: Mus musculus, 48 hours. Format: cell-based. On the procedure: as §1, §6, §7
In test [11] the test system is HepG2. Briefly: Cell viability assay (Example 2). Format: cell-based. Particulars: Homo sapiens; HepG2, 48 hours. On the procedure: as §1, §6, §7
For test [12], the system named is SK-N-SH. Nature of the test: Cell viability assay (Example 2). Format: cell-based. Particulars: Homo sapiens, 48 hours. On the procedure: as §1, §6, §7
For test [13], the system named is T98G. Briefly: Cell viability assay (Example 2). Format: cell-based. The note with it: Homo sapiens, 48 hours. As to the method:
as §1, §6, §7

Test [14] relates to U251. Briefly: Cell viability assay (Example 2). Format: cell-based. The note with it: Homo sapiens, U-251; U251, 48 hours. On the procedure: as §1, §6, §7
Test [15] concerns U87MG. Nature of the test: Cell viability assay (Example 2). Format: cell-based. The note with it: Homo sapiens, U-87 MG, 48 hours. As to the method:
as §1, §6, §7

The test system of test [16] is CHO-K1. Nature of the test: Cell viability assay (Example 2). Format: cell-based, hamster. Particulars: non-tumor cell line CHO-K1, 48 hours. On the procedure: as §1, §6, §7
A further test relates to various tumor cells. Nature of the test: Vacuolation by S2, summary over tumor cells (FIG. 2). Format: cell-based. As to the method:
as §1, §2, §5

As usually defined, the IC50 is the midpoint of a concentration-inhibition curve. Read a low IC50 as higher potency. Regarding `CCOC(=O)C1=C(C)Nc2nc3c(c(N)c2C1c1ccccc1Cl)CC(C)(C)CC3` (centres unmarked) [Compound S2], the “Rank of vacuolation-inducing activity among the derivatives” value in the test on T98G cells is “strongest vacuolation-inducing activity”. The “Induction of vacuolation in T98 cells” value with T98G cells (FIG. 1 and Table 1) is recorded as “can induce vacuolation”. In addition, the Induction of vacuolation result in the test on A172 [1] was “can induce vacuolation”; in the test with HepG2 [2] it was “can also induce vacuolation”; in the test with SK-N-SH [3] it was “can induce vacuolation”; with T98G [4] it was “can induce vacuolation”; with U251 [5], “can induce vacuolation”; in the test with U87MG [6] it was “can induce vacuolation”. For the same compound, the Induction of vacuolation result in the test on CT26.WT [7] was “can also induce vacuolation”; in the test with CHO-K1 [8], “could not induce vacuolation”. Besides, the IC50 is 4.7 µM with A172 [9]; 7.1 µM with CT26.WT [10]; 10.1 µM in the test on HepG2 [11]; 11.4 µM in the test on SK-N-SH [12]; 9.4 µM in the test on T98G [13]; 14.3 µM with U251 [14]. The IC50 in the test on U87MG [15] was 11.7 µM; with CHO-K1 [16] (CHO-K1, 48 h), greater than 100 µM; in the test on CHO-K1 [16] it was roughly 100 µM. Also, the “Induction of vacuolation (FIG. 2 legend)” value in the test with various tumor cells was “induced vacuolation”.
